Blank lines part the entries; values can stand above or below the compound they belong to.
Experiments:
[1] = test system: caspase-3 activation in B50 cells; assay: Nitroprusside-induced caspase-3 activation in B50 cells (marker of CyP-A activity); type: cell-based, rat; settings: 100 μM nitroprusside 40 min, assayed after 5 hr, Compound 1 at 2.5 μM
[2] = test system: CyP-D(+) B50 cells; assay: TMRE uptake (inner membrane potential) in B50 cells and CyP-D overexpressing clone; type: cell-based, rat
[3] = test system: intramitochondrial CyP-D rather than extramitochondrial CyP-A; settings: for mitochondrial matrix/extramitochondrial accumulation ratio: isolated rat liver mitochondria plus recombinant CyP-A, 25° C.
[4] = test system: rat hippocampal neurons; assay: Oxygen and glucose deprivation (pseudo ischaemia/reperfusion) induced necrosis of hippocampal neurons; type: cell-based; settings: for protection against neuron mortality (necrosis) following OGD: within 90 min, about 60% of neurons necrotic without compound
[5] = test system: Permeability Transition (PT) pore; assay: Ca2+-induced PT pore opening (swelling, absorbance at 540 nm) in isolated mitochondria; type: biochemical; settings: read-out: concentration giving 50% inhibition of PT pore opening; isolated rat liver mitochondria, 50 μM Ca2+ infused slowly
[6] = biological target: cyclophilin D (CyP-D) (Rattus norvegicus, UniProt P29117); assay: PPIase assay, inhibition of recombinant CyP-D by cyclosporins
Sequence of cyclophilin D (CyP-D) (P29117 30-206): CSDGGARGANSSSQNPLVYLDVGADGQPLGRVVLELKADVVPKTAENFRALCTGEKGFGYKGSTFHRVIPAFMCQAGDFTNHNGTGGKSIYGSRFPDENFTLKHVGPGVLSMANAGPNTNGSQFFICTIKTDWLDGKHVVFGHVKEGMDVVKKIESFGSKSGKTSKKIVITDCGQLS

[7] = test system: rat heart cells (ventricular cardiomyocytes); assay: Oxygen and glucose deprivation / reoxygenation induced necrosis of heart cells; type: cell-based

SMILES: C/C=C/C[C@@H](C)[C@@H](O)[C@H]1C(=O)N[C@@H](CC)C(=O)N(C)C(Cc2ccc(C(=O)NCCCCCCNC(=O)CCCCC[P+](c3ccccc3)(c3ccccc3)c3ccccc3)cc2)C(=O)N(C)[C@@H](CC(C)C)C(=O)N[C@@H](C(C)C)C(=O)N(C)[C@@H](CC(C)C)C(=O)N[C@@H](C)C(=O)N[C@H](C)C(=O)N(C)[C@@H](CC(C)C)C(=O)N(C)[C@@H](CC(C)C)C(=O)N(C)[C@@H](C(C)C)C(=O)N1C (stereo partly drawn) [Compound 1, (6-(6-(4-(((5S,8S,11S,14S,17R,20S,23S,26S,29S,32S)-32-ethyl-29-((1R,2R,E)-1-hydroxy-2-methylhex-4-enyl)-5,11,20,23-tetraisobutyl-8,26-diisopropyl-1,4,10,14,17,19,22,25,28-nonamethyl-3,6,9,12,15,18,21,24,27,30,33-undecaoxo-1,4,7,10,13,16,19,22,25,28,31-undecaazacyclotritriacontan-2-yl)methyl)benzamido)hexylamino)-6-oxohexyl)triphenylphosphonium]
effect on nitroprusside-induced activation of caspase-3 [1]: no significant effect | concentration for maximal restoration of TMRE uptake by CyP-D(+) cells ([2]; B50 clone overexpressing CyP-D about 10-fold, 50 nM TMRE): ~2400 nM | effect on TMRE uptake by wild type cells ([2]; wild type B50 cells, 0.8 μM CsA, 2.4 μM Compound 1): did not affect | inhibition of PT pore formation compared with inhibition of extramitochondrial CyP-A ([3]; same incubation, CyP-A activity in supernatant): considerably better | protection against neuron mortality (necrosis) following OGD ([4]; 30 min OGD): approximately halved | concentration giving maximal protection against OGD-induced necrosis ([4]; hippocampal neurons, 30 min OGD): > 0.8 µM | IC50 [5]: ~400 nM

Ki [6]: 120 nM | mitochondrial matrix/extramitochondrial accumulation ratio [3]: 4.2
SMILES: C/C=C/C[C@@H](C)[C@@H](O)[C@H]1C(=O)N[C@@H](CC)C(=O)N(C)C(Cc2ccc(C(=O)NCCCCCCNC(=O)c3ccc(-c4c5ccc(=[N+](C)C)cc-5oc5cc(N(C)C)ccc45)cc3)cc2)C(=O)N(C)[C@@H](CC(C)C)C(=O)N[C@@H](C(C)C)C(=O)N(C)[C@@H](CC(C)C)C(=O)N[C@@H](C)C(=O)N[C@H](C)C(=O)N(C)[C@@H](CC(C)C)C(=O)N(C)[C@@H](CC(C)C)C(=O)N(C)[C@@H](C(C)C)C(=O)N1C (some centres unmarked) [Compound 4]

SMILES: C/C=C/C[C@@H](C)[C@@H](O)[C@H]1C(=O)N[C@@H](CC)C(=O)N(C)C(Cc2ccc(C(=O)NCCOCCNC(=O)CC[P+](c3ccccc3)(c3ccccc3)c3ccccc3)cc2)C(=O)N(C)[C@@H](CC(C)C)C(=O)N[C@@H](C(C)C)C(=O)N(C)[C@@H](CC(C)C)C(=O)N[C@@H](C)C(=O)N[C@H](C)C(=O)N(C)[C@@H](CC(C)C)C(=O)N(C)[C@@H](CC(C)C)C(=O)N(C)[C@@H](C(C)C)C(=O)N1C (stereo partly drawn) [Compound 3, 12-(4-(((5S,8S,11S,14S,17R,20S,23S,26S,29S,32S)-32-ethyl-29-((1R,2R,E)-1-hydroxy-2-methylhex-4-enyl)-5,11,20,23-tetraisobutyl-8,26-diisopropyl-1,4,10,14,17,19,22,25,28-nonamethyl-3,6,9,12,15,18,21,24,27,30,33-undecaoxo-1,4,7,10,13,16,19,22,25,28,31-undecaazacyclotritriacontan-2-yl)methyl)phenyl)-4,12-dioxo-1,1,1-triphenyl-8-oxa-5,11-diaza-1-phosphoniadodecane]
Ki [6]: 6 nM | mitochondrial matrix/extramitochondrial accumulation ratio [3]: >10

SMILES: C/C=C/C[C@@H](C)[C@@H](O)[C@H]1C(=O)N[C@@H](CC)C(=O)N(C)CC(=O)N(C)[C@@H](CC(C)C)C(=O)N[C@@H](C(C)C)C(=O)N(C)[C@@H](CC(C)C)C(=O)N[C@@H](C)C(=O)N[C@H](C)C(=O)N(C)[C@@H](CC(C)C)C(=O)N(C)[C@@H](CC(C)C)C(=O)N(C)[C@@H](C(C)C)C(=O)N1C [CsA, Cyclosporin A]
protection against neuron mortality (necrosis) following OGD ([4]; 30 min OGD): less protective | protection against OGD-induced necrosis at 0.1 μM ([4]; hippocampal neurons, 0.1 μM): relatively small protection | protection against OGD-induced necrosis at higher concentrations ([4]; hippocampal neurons, above 0.1 μM): reversed | maximal protection ([7]; necrosis after 3 hours of reoxygenation): 42%

Ki [6]: 30 nM | mitochondrial matrix/extramitochondrial accumulation ratio [3]: >10
SMILES: CC[C@@H]1NC(=O)[C@H]([C@H](O)[C@H](C)C/C=C/C(=O)NCCOCCNC(=O)CC[P+](c2ccccc2)(c2ccccc2)c2ccccc2)N(C)C(=O)[C@H](C(C)C)N(C)C(=O)[C@H](CC(C)C)N(C)C(=O)[C@H](CC(C)C)N(C)C(=O)[C@@H](C)NC(=O)[C@H](C)NC(=O)[C@H](CC(C)C)N(C)C(=O)[C@H](C(C)C)NC(=O)[C@H](CC(C)C)N(C)C(=O)CN(C)C1=O [Compound 2, (16R,17R,E)-17-((2S,5S,11S,14S,17S,20S,23R,26S,29S,32S)-5-ethyl-11,17,26,29-tetraisobutyl-14,32-diisopropyl-1,7,10,16,20,23,25,28,31-nonamethyl-3,6,9,12,15,18,21,24,27,30,33-undecaoxo-1,4,7,10,13,16,19,22,25,28,31-undecaazacyclotritriacontan-2-yl)-17-hydroxy-16-methyl-4,12-dioxo-1,1,1-triphenyl-8-oxa-5,11-diaza-1-phosphoniaheptadec-13-ene]
necrosis during reoxygenation ([7]; 5 hours reoxygenation, in particular first 3 hours): inhibited | necrosis induced by OGD for 4 hours ([7]; before reoxygenation, with or without compound): negligible necrosis | cytoprotection at 15 nM ([7]; necrosis after 3 hours of reoxygenation, 15 nM): complete protection

Reference: patent US20120157385A1, “CYCLOSPORIN CONJUGATES” (UCL Business PLC, priority 2009, published 2012)
